Measurements taken from US10214507B2, “Carbazole-containing amides, carbamates, and ureas as cryptochrome modulators” (Reset Therapeutics, Inc., priority 2014, dated 2019).

Columns and labels:
[1] = system: core clock gene mRNAs in livers of ICR mice; assay: Four day study, liver clock gene mRNA by RT-qPCR, ICR mice; format: in vivo, mouse; conditions: 50 mg/kg PO BID 4 days
Method: Male ICR mice (weighing 30-35 g), obtained from Charles River Laboratories (Hollister, CA), were used for the experiment following at least 3 days of acclimation. Mice were dosed with vehicle (WFI or 10% Kolliphor) or compound (50 mg/kg, dose volume 5 mL/kg, PO) for 4 days BID (twice a day), beginning in the afternoon of the first day. The last dose of compound or vehicle was administered on the morning of harvest. On the day of harvest (6 hours following the final dose), mice were euthanized by CO2 asphyxiation and 50 mg of liver tissue was excised and placed in a tube containing 500 μl of RNA later.
(§1) E.Z.N.A.® HP Total RNA Isolation Kits (R6812-01 and the protocol described in the Manual, Revised 2010) were utilized to prepare and isolate RNA from the liver samples. To prepare the RNA samples, 10-30 mg of sample was removed from RNA-Later and placed in a 1.5 ml microfuge tube. GTC lysis buffer (700 μl) was added to the tissue, which was homogenized with a rotor-stator homogenizer (e.g. Tissue-Tearor, Model #985370 BioSpec Products with 4.5 mm probe, Cat. #985370-04), and then centrifuged at full speed (>13,000×g) for 5 minutes. The cleared supernatant was transferred by pipetting to a DNA Clearance Column Pre-inserted in a 2 mL Collection Tube. The assembled column was centrifuged at 13,000×g for 1 minute, and the flow-through was saved. An equal volume (700 μl) of 70% ethanol was added to the lysate and mixed. The sample was then applied to a HiBind RNA spin column placed into a 2 ml collection tube, which was centrifuged at 10,000×g for 60 seconds at room temperature. RNA Wash Buffer I (250 μl) was added by pipetting directly onto a new HiBind RNA column inserted in a 2 ml collection tube. The assembled column was centrifuged at 10,000×g for 60 seconds. The RNA column was placed into a new 2 ml collection tube. DNase I stock solution is pipetted (75 μl) directly onto the surface of the HiBind RNA resin in each column (Using DNAse Digestion with RNase Free DNase Set (E1091): for each HiBind RNA column, the DNase I stock solution was prepared as followed: E.Z.N.A.® DNase I Digestion Buffer 73.5μl, RNase Free DNase I (20 Kunitz/μl) 1.5 μl=Total Volume 75 μl.). The column with bound RNA was incubated at room temperature (25-30° C.) for 15 minutes. RNA Wash Buffer I (500 μl) was added to the column and placed on a bench top for 2 minutes. After centrifuging at 10,000×g for 60 seconds, discarding the flow-through, 500 μl of RNA Wash Buffer II was added and centrifuged at 10,000×g for 60 seconds. Another 500 μl of RNA Wash Buffer II was added and the column assembly was centrifuged at 10,000×g for 60 seconds. The column was centrifuged for 2 minutes at maximum speed to completely dry the HiBind matrix. The column was placed in a clean 1.5 ml microcentrifuge tube and 40-70 μl of molecular biology grade water is added. After sitting for 1 minute, the column was centrifuged for 2 minutes at maximum speed to elute the RNA. The isolated RNA was collected into the collection tube.
RediPlate 96 RiboGreen RNA Quantification Kit (Invitrogen) RediPlate standard curve was prepared by transferring 20 μl reconstituted RNA standard to a RediPlate well reconstituted in 180 μl RediPlate TE buffer. For liver RNAs prepared from 30-100 mg of tissue using a kit similar to the Omega Bio-Tek HP Total RNA Kit and eluted in RNAse-free water in a volume of 50 μl (microliters), 5 μl of the total RNA is diluted in 195 μl of RediPlate TE buffer (1:40 dilution of RNA), mix. After transferring 5 μl to RediPlate well reconstituted in 195 μl TE buffer and incubating 10 min. at RT, Fluorescence Intensity of wells with standards and samples were read in a Tecan M200 with Excitation set at 480 nm and Emission set at 520 nm with the gain set to −70%. Alternatively, one can use the FlexStation 3 with Ex 488 nm and Em 525 nm and a Cutoff of 515 nm.

[2] = system: core clock gene mRNAs in liver of Balb/c mice; assay: 24 hour gene expression study, liver mRNA by RT-qPCR, Balb/c mice; format: in vivo, mouse; conditions: 50 mg/kg BID PO
Method: as §1, with “The column was placed in a clean 1.5 ml microcentrifuge tube and 40-70 μl of molecular biology grade water is added. After sitting for 1 minute, the column was centrifuged for 2 minutes at maximum speed to elute the RNA. The isolated RNA was collected into the collection tube.” left out
RediPlate 96 RiboGreen RNA Quantification Kit (Invitrogen) RediPlate standard curve was prepared by transferring 20 μl reconstituted RNA standard to a RediPlate well reconstituted in 180 μl RediPlate TE buffer. […] After transferring 5 μl to RediPlate well reconstituted in 195 μl TE buffer and incubating 10 min. at RT, Fluorescence Intensity of wells with standards and samples were read in a Tecan M200 with Excitation set at 480 nm and Emission set at 520 nm with the gain set to −70%. […] A standard curve was generated in GraphPad Prism and sample readings (unknowns) are interpolated via linear regression analysis, and the RNA sample concentrations were calculated. […]

[3] = system: db/db mouse model of type II diabetes; assay: Single dose at peak or nadir of clock gene expression, OGTT in db/db mice; format: in vivo
Excerpt: Mice were split into two study arms, to be dosed at either the peak or nadir of Cry1 and Bmal1 gene expression. […] Mice dosed at ZT10 were fasted beginning at 8:30 am in the same manner.
Significance was accepted when p<0.05.

O=C1NCCN1CC(O)Cn1c2ccc(F)cc2c2cc(F)ccc21 (centres unmarked) [Compound 72, 1-(3-(3,6-difluoro-9H-carbazol-9-yl)-2-hydroxypropyl)imidazolidin-2-one]
Cry2 transcripts ([1]; ICR mice liver): decrease | increase in Bmal1 mRNA at ZT6 ([1]; ICR mice liver): 4 fold | liver Per2 expression ([1]; ICR mice, ZT6): suppression | Cry2 mRNA daytime peak in liver [2]: strongly attenuated | Bmal1 mRNA in liver ([2]; at ZT8 and 32 hours after original ZT0): substantially increased | Cry1 mRNA in liver ([2]; peak of expression in dark period): suppressed | Per2 mRNA in liver over 24 hours ([2]; vs vehicle): suppressed | effect on OGTT measurement, dosed at peak of Cry1 and Bmal1 expression ([3]; single dose 50 mg/kg PO at ZT0): apparent effect | effect on OGTT measurement, dosed at nadir ([3]; single dose 50 mg/kg PO at ZT10): no effect | glucose AUC calculated from the OGTT ([3]; single dose 50 mg/kg PO at peak (ZT0), mean+/-S.E.M.): 63842+/−4318 | reduction in glucose excursion (AUC) ([3]; single dose 50 mg/kg PO at peak (ZT0), vs vehicle): 14%
